Measured values published in US9006487B2, “Amine-containing lipids and uses thereof” (Massachusetts Institute of Technology, priority 2005, dated 2015).

system: cos-7 cells; assay: DNA transfection: luciferase expression relative to Lipofectamine 2000; assay type: cell-based; details: lipid/DNA 2.5 w/w; 300 ng Luciferase DNA per well; luciferase assay after 48 hours
How it was run: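 Lipid/DNA complexes, 300 ng luciferase DNA per well at 2.5-25 w/w lipid:DNA, were formed in sodium acetate/Optimem and added to overnight-seeded cos-7 cells. Luciferase was measured by Bright-Glo luminescence after 48 hours and quantified against an enzyme standard curve. Values are expressed as % of Lipofectamine 2000 at 2.5 w/w.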

First: CCCCCCCCCCCCCCOC(=O)CCN(CCC(=O)OCCCCCCCCCCCCCC)CC1CCCO1 (stereo not drawn) [LF15]
Second: CCCCCCCCCCCCCCOC(=O)CCN(CCC(=O)OCCCCCCCCCCCCCC)C[C@@H](C)O [LF21]
The “Luciferase expression as a percentage of that achieved using Lipofectamine 2000” value (“Luciferase expression as a percentage” for short) of the first is lower: 0.1% for the first, 0.4% for the second.

First: CCCCCCCCCCCCCCOC(=O)CCN(CCC(=O)OCCCCCCCCCCCCCC)CCc1ccc(OC)c(OC)c1 [LF17]
Second: CCCCCCCCCCCCCCOC(=O)CCN(CCCO)CCC(=O)OCCCCCCCCCCCCCC [LF20]
The “Luciferase expression as a percentage” value of the first is lower: 0.1% for the first, 0.2% for the second.

CCCCCCCCCCCCCCOC(=O)CCN(CCC(=O)OCCCCCCCCCCCCCC)C[C@H](C)O [LF22] and CCCCCCCCCCCCCCOC(=O)CCN(CCC(=O)OCCCCCCCCCCCCCC)CC(O)CO (stereo not drawn) [LF24] are the same in “Luciferase expression as a percentage” value: 0.1% for the first, 0.1% for the second.

CCCCCCCCCCCCCCOC(=O)CCN(CCC(=O)OCCCCCCCCCCCCCC)C(CO)CO [LF25] and CCCCCCCCCCCCCCOC(=O)CCN(CCC(=O)OCCCCCCCCCCCCCC)C(C)(CO)CO [LF26] are the same in “Luciferase expression as a percentage” value: 0.1% for the first, 0.1% for the second.

same assay, conditions: lipid/DNA 5 w/w; 300 ng Luciferase DNA per well; luciferase assay after 48 hours

First: CCCCCCCCCCCCCCOC(=O)CCN(CCC(=O)OCCCCCCCCCCCCCC)CC1CCCO1 (stereo not drawn) [LF15]
Second: CCCCCCCCCCCCCCOC(=O)CCN(CCC(=O)OCCCCCCCCCCCCCC)C[C@@H](C)O [LF21]
The “Luciferase expression as a percentage” value of the first is lower: 0.1% for the first, 0.4% for the second.

Compared with CCCCCCCCCCCCCCOC(=O)CCN(CCC(=O)OCCCCCCCCCCCCCC)CCc1ccc(OC)c(OC)c1 [LF17], CCCCCCCCCCCCCCOC(=O)CCN(CCCO)CCC(=O)OCCCCCCCCCCCCCC [LF20] is higher in “Luciferase expression as a percentage” value: 0.1% for the first, 0.4% for the second.

CCCCCCCCCCCCCCOC(=O)CCN(CCC(=O)OCCCCCCCCCCCCCC)C[C@H](C)O [LF22] and CCCCCCCCCCCCCCOC(=O)CCN(CCC(=O)OCCCCCCCCCCCCCC)CC(O)CO (stereo not drawn) [LF24] are the same in “Luciferase expression as a percentage” value: 0.1% for the first, 0.1% for the second.

CCCCCCCCCCCCCCOC(=O)CCN(CCC(=O)OCCCCCCCCCCCCCC)C(CO)CO [LF25] and CCCCCCCCCCCCCCOC(=O)CCN(CCC(=O)OCCCCCCCCCCCCCC)C(C)(CO)CO [LF26] are the same in “Luciferase expression as a percentage” value: 0.2% for the first, 0.2% for the second.

same assay, conditions: lipid/DNA 10 w/w; 300 ng Luciferase DNA per well; luciferase assay after 48 hours

First: CCCCCCCCCCCCCCOC(=O)CCN(CCC(=O)OCCCCCCCCCCCCCC)CC1CCCO1 (stereo not drawn) [LF15]
Second: CCCCCCCCCCCCCCOC(=O)CCN(CCC(=O)OCCCCCCCCCCCCCC)C[C@@H](C)O [LF21]
The “Luciferase expression as a percentage” value of the first is lower: 0.0% for the first, 0.4% for the second.

Going from CCCCCCCCCCCCCCOC(=O)CCN(CCC(=O)OCCCCCCCCCCCCCC)CCc1ccc(OC)c(OC)c1 [LF17] to CCCCCCCCCCCCCCOC(=O)CCN(CCCO)CCC(=O)OCCCCCCCCCCCCCC [LF20], the “Luciferase expression as a percentage” value rises from 0.1% to 0.3%.

CCCCCCCCCCCCCCOC(=O)CCN(CCC(=O)OCCCCCCCCCCCCCC)C[C@H](C)O [LF22] and CCCCCCCCCCCCCCOC(=O)CCN(CCC(=O)OCCCCCCCCCCCCCC)CC(O)CO (stereo not drawn) [LF24] are the same in “Luciferase expression as a percentage” value: 0.1% for the first, 0.1% for the second.

First: CCCCCCCCCCCCCCOC(=O)CCN(CCC(=O)OCCCCCCCCCCCCCC)C(CO)CO [LF25]
Second: CCCCCCCCCCCCCCOC(=O)CCN(CCC(=O)OCCCCCCCCCCCCCC)C(C)(CO)CO [LF26]
The “Luciferase expression as a percentage” value of the first is lower: 0.3% for the first, 0.7% for the second.

same assay, conditions: lipid/DNA 15 w/w; 300 ng Luciferase DNA per well; luciferase assay after 48 hours

Compared with CCCCCCCCCCCCCCOC(=O)CCN(CCC(=O)OCCCCCCCCCCCCCC)CC1CCCO1 (stereo not drawn) [LF15], CCCCCCCCCCCCCCOC(=O)CCN(CCC(=O)OCCCCCCCCCCCCCC)C[C@@H](C)O [LF21] is higher in “Luciferase expression as a percentage” value: 0.0% for the first, 0.4% for the second.

Compared with CCCCCCCCCCCCCCOC(=O)CCN(CCC(=O)OCCCCCCCCCCCCCC)CCc1ccc(OC)c(OC)c1 [LF17], CCCCCCCCCCCCCCOC(=O)CCN(CCCO)CCC(=O)OCCCCCCCCCCCCCC [LF20] is higher in “Luciferase expression as a percentage” value: 0.1% for the first, 0.2% for the second.

First: CCCCCCCCCCCCCCOC(=O)CCN(CCC(=O)OCCCCCCCCCCCCCC)C[C@H](C)O [LF22]
Second: CCCCCCCCCCCCCCOC(=O)CCN(CCC(=O)OCCCCCCCCCCCCCC)CC(O)CO (stereo not drawn) [LF24]
The “Luciferase expression as a percentage” value of the first is lower: 0.1% for the first, 0.2% for the second.

Compared with CCCCCCCCCCCCCCOC(=O)CCN(CCC(=O)OCCCCCCCCCCCCCC)C(CO)CO [LF25], CCCCCCCCCCCCCCOC(=O)CCN(CCC(=O)OCCCCCCCCCCCCCC)C(C)(CO)CO [LF26] is lower in “Luciferase expression as a percentage” value: 0.4% for the first, 0.1% for the second.

same assay, conditions: lipid/DNA 20 w/w; 300 ng Luciferase DNA per well; luciferase assay after 48 hours

Going from CCCCCCCCCCCCCCOC(=O)CCN(CCC(=O)OCCCCCCCCCCCCCC)CC1CCCO1 (stereo not drawn) [LF15] to CCCCCCCCCCCCCCOC(=O)CCN(CCC(=O)OCCCCCCCCCCCCCC)C[C@@H](C)O [LF21], the “Luciferase expression as a percentage” value rises from 0.1% to 0.4%.

CCCCCCCCCCCCCCOC(=O)CCN(CCC(=O)OCCCCCCCCCCCCCC)CCc1ccc(OC)c(OC)c1 [LF17] and CCCCCCCCCCCCCCOC(=O)CCN(CCCO)CCC(=O)OCCCCCCCCCCCCCC [LF20] are the same in “Luciferase expression as a percentage” value: 0.1% for the first, 0.1% for the second.

Compared with CCCCCCCCCCCCCCOC(=O)CCN(CCC(=O)OCCCCCCCCCCCCCC)C[C@H](C)O [LF22], CCCCCCCCCCCCCCOC(=O)CCN(CCC(=O)OCCCCCCCCCCCCCC)CC(O)CO (stereo not drawn) [LF24] is higher in “Luciferase expression as a percentage” value: 0.1% for the first, 0.3% for the second.

Compared with CCCCCCCCCCCCCCOC(=O)CCN(CCC(=O)OCCCCCCCCCCCCCC)C(CO)CO [LF25], CCCCCCCCCCCCCCOC(=O)CCN(CCC(=O)OCCCCCCCCCCCCCC)C(C)(CO)CO [LF26] is lower in “Luciferase expression as a percentage” value: 0.9% for the first, 0.1% for the second.

same assay, conditions: lipid/DNA 25 w/w; 300 ng Luciferase DNA per well; luciferase assay after 48 hours

First: CCCCCCCCCCCCCCOC(=O)CCN(CCC(=O)OCCCCCCCCCCCCCC)CC1CCCO1 (stereo not drawn) [LF15]
Second: CCCCCCCCCCCCCCOC(=O)CCN(CCC(=O)OCCCCCCCCCCCCCC)C[C@@H](C)O [LF21]
The “Luciferase expression as a percentage” value of the first is lower: 0.1% for the first, 0.4% for the second.

CCCCCCCCCCCCCCOC(=O)CCN(CCC(=O)OCCCCCCCCCCCCCC)CCc1ccc(OC)c(OC)c1 [LF17] and CCCCCCCCCCCCCCOC(=O)CCN(CCCO)CCC(=O)OCCCCCCCCCCCCCC [LF20] are the same in “Luciferase expression as a percentage” value: 0.1% for the first, 0.1% for the second.

Compared with CCCCCCCCCCCCCCOC(=O)CCN(CCC(=O)OCCCCCCCCCCCCCC)C[C@H](C)O [LF22], CCCCCCCCCCCCCCOC(=O)CCN(CCC(=O)OCCCCCCCCCCCCCC)CC(O)CO (stereo not drawn) [LF24] is higher in “Luciferase expression as a percentage” value: 0.1% for the first, 0.3% for the second.

Going from CCCCCCCCCCCCCCOC(=O)CCN(CCC(=O)OCCCCCCCCCCCCCC)C(CO)CO [LF25] to CCCCCCCCCCCCCCOC(=O)CCN(CCC(=O)OCCCCCCCCCCCCCC)C(C)(CO)CO [LF26], the “Luciferase expression as a percentage” value falls from 1.5% to 0.3%.
